Results: patent publication US20100113507A1, “3-Tetrazolyl Indazoles, 3-Tetrazolyl Pyrazolopyridines, and use Thereof” (BAYER HEALTHCARE AG, priority 2006, published 2010)

Legend:
aorta rings = assay: Vasorelaxant effect in vitro (phenylephrine-contracted aorta rings); assay type: cell-based, Rabbits; settings: Oryctolagus cuniculus; rabbit aorta rings, contraction induced by phenylephrine, 37° C., 0.1% DMSO; read-out: IC50 (concentration necessary to reduce the level of contraction by 50%)
Description: Rabbits are stunned by a blow to the back of the neck and are exsanguinated. The aorta is removed, freed of adherent tissue, divided into rings 1.5 mm wide and placed singly in 5 ml organ baths with carbogen-gassed Krebs-Henseleit solution of the following composition (in each case mM): NaCl: 119; KCl: 4.8; CaCl2×2H2O: 1; MgSO4×7H2O: 1.4; KH2PO4: 1.2; NaHCO3: 25; glucose: 10, under an initial tension at 37° C. The force of contraction is detected with Statham UC2 cells, amplified and digitized via A/D converters (DAS-1802 HC, Keithley Instruments Munich), and recorded in parallel on chart recorders. A contraction is induced by adding phenylephrine to the bath cumulatively in increasing concentration. After several control cycles, the substance to be investigated is added in each further run in increasing dosage each time, and the level of contraction is compared with the level of contraction achieved in the last preceding run. The concentration necessary to reduce the level of contraction by 50% (IC50) is calculated therefrom. The standard application volume is 5 μl and the DMSO content in the bath solution corresponds to 0.1%.

[1] = reported by A. Straub et al., Bioorg. Med. Chem. Lett. 11, 781-784 (2001); cited from earlier work

| IC50 (aorta rings) | Compound | vasorelaxant effect [1] |
| --- | --- | --- |
| 4.5 µM | Fc1cccc(Cn2nc(-c3nnn[nH]3)c3cccnc32)c1F [Example 4, 1-(2,3-Difluorobenzyl)-3-(1H-tetrazol-5-yl)-1H-pyrazolo[3,4-b]pyridine] | – |
| 2 µM | c1cnc2c(c1)c(-c1nnn[nH]1)nn2CC1CCCCCC1 [Example 1, 1-(Cycloheptylmethyl)-3-(1H-tetrazol-5-yl)-1H-pyrazolo[3,4-b]pyridine] | – |
| – | Fc1ccccc1Cn1nc(-c2nnn[nH]2)c2cccnc21 [1-(2-fluorobenzyl)-3-(1H-tetrazol-5-yl)-1H-pyrazolo[3,4-b]pyridine] | moderately vasorelaxant effect |
| 6.1 µM | Clc1ccc(Cn2nc(-c3nnn[nH]3)c3cccnc32)s1 [Example 7, 1-[(5-Chloro-2-thienyl)methyl]-3-(1H-tetrazol-5-yl)-1H-pyrazolo[3,4-b]pyridine] | – |
